This is an account of results in article PMC3964510 (Diabetes, 2014).

For this assay, the target named is T1, protein tyrosine phosphatase (PTP) 1B (Homo sapiens, UniProt P18031).
T1 sequence (P18031 1-435): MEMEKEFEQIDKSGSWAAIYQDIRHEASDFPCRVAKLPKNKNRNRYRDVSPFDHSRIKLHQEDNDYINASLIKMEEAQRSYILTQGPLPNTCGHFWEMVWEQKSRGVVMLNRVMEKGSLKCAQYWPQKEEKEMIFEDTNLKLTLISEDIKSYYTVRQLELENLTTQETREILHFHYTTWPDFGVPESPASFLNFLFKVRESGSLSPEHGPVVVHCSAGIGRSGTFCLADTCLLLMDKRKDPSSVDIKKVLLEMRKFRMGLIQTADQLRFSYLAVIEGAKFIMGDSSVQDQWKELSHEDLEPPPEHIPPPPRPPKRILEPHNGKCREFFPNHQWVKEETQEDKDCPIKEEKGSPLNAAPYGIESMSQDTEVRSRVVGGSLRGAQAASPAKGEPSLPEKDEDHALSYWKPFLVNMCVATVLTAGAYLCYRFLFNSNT
As to the kind of experiment: in vitro PTP1B inhibitor screening assay. In kind it is biochemical.

Consider `C[C@H]1Oc2cc3c(-c4c(O)cc(O)c5c(O)c6c(cc45)O[C@H](C)[C@@H](C)C6=O)c(O)cc(O)c3c(O)c2C(=O)[C@@H]1C` [4548-G05, [9,9′-Bi-4H-naphtho[2,3-b]pyran]-4,4′-dione,2,2′,3,3′-tetrahydro-5,5′,6,6′,8,8′-hexahydroxy-2,2′,3,3′-tetramethyl], for which half-maximal inhibition (IC50) required 75.3 ± 2.52 µM.
